The results in this text go back to US20230118435A1, “COMPOSITION COMPRISING AN AVENANTHRAMIDE WITH IMPROVED SKIN PENETRATION” (priority 2020, published 2023).

This series is described as follows: Skin PAMPA (Parallel Artificial Membrane Permeability Assay) permeation from a cosmetic formulation. The following applies: for Mean amount per ml acceptor liquid: 0.05% in formulation, no penetration enhancer; for Modulation (%) of penetration / increase of permeation / Modulation (%) of penetration: 3% 1,2-pentanediol (Hydrolite-5); for Penetration behaviour compared with DhAvn D: absence of a penetration enhancer, FIG. 1. In kind it is in vitro ADME. How it is done: The permeation of Avn A from a cosmetic formulation across a stratum corneum-mimicking artificial membrane was evaluated using the Skin PAMPA™ (Parallel Artificial Membrane Permeability Assay) model.
The primary penetration barrier of the skin, the stratum corneum (SC), consists of corneocytes embedded in extracellular lipids. The lipid mixture of the Skin PAMPA™ membrane consists of similar quantities of certramides (synthetic ceramide analogues), stearic acid and cholesterol as the SC. The Skin PAMPA™ sandwich consists of two 96-well plates, wherein one plate is formed so as to sit precisely under the plate that contains a porous lipid-impregnated filter. The wells of the bottom plate were filled with formulation, and the wells of the top plate were filled with acceptor solution. The plates were then stacked and incubated. The Skin PAMPA™ model has been used to evaluate semi-solid formulations and found to correlate well with ex vivo permeation studies.
Heat Phase A and B separately to 70° C.; disperse Phase C in B; add Phase BC to Phase A and emulsify using an ULTRA TURRAX® stirrer (2 minutes); allow to cool by using a vane stirrer; add Phase D for neutralising. The formulation was prepared in bulk. The active substances were pre-dissolved in the corresponding additives and were added to the formulation (15 minutes stirring with a vane stirrer).
180 ml of buffer was mixed with 20 ml ethanol (buffer: 20 mmol/l citric acid, pH 5.5); 0.84 g of anhydrous citric acid was dissolved in approximately 180 g of water; the pH was adjusted to 5.5 using a 30% sodium hydroxide solution; following pH adjustment, the solution was filled up with water to 200 g.
After 240 minutes, approximately 180 μl of each Skin PAMPA™ sample was transferred into an HPLC micro-vial.
Equipment: an Agilent HP 1100 connected to a Waters Empower 3 SR3
Column: a Waters XBridge® C18, 3.5 μm, 3.0×50 mm
Column temperature: 30° C. Mobile phase A: water+0.1% formic acid Mobile phase B: methanol Flow: 1.02 ml/min Injection volume: 25 μl
The permeation of Avn L from a cosmetic formulation across a stratum corneum-mimicking artificial membrane was evaluated as described above using the Skin PAMPA™ (Parallel Artificial Membrane Permeability Assay) model.
The permeation of Avn B from a cosmetic formulation across a stratum corneum-mimicking artificial membrane was evaluated as described above using the Skin PAMPA™ (Parallel Artificial Membrane Permeability Assay) model.
Unlike Examples 1 and 2, acceptor solution samples for HPLC analysis of each Skin PAMPA™ sample were this time taken after just 120 minutes.
The skin permeation of Avn A, Avn B, Avn C and Avn L in comparison to dihydroavenanthramide D (DhAvn D) from a cosmetic formulation across a stratum corneum-mimicking artificial membrane was evaluated as described above using the Skin PAMPA™ (Parallel Artificial Membrane Permeability Assay) model.
Heat Phase A and B separately to 70° C.; disperse Phase C in B; add Phase BC to Phase A and emulsify using an ULTRA TURRAX® stirrer (2 minutes); allow to cool by using a vane stirrer; add Phase D for neutralising. The formulation was prepared in bulk. The active substances were pre-dissolved in glycerine or water or mixtures thereof and were added to the formulation (15 minutes stirring with a vane stirrer).
After 60, 120 and 240 minutes, approximately 180 μl of each Skin PAMPA™ sample was transferred into an HPLC micro-vial and analysed by HPLC.
The permeation of Avn L in comparison to dihydroavenanthramide D (DhAvn D) from a cosmetic formulation in the presence of 3% 1,2-pentanediol across a stratum corneum-mimicking artificial membrane was evaluated as described above using the Skin PAMPA™ (Parallel Artificial Membrane Permeability Assay) model.
A general note: The PAMPA barrier holds no transporters, so it reflects passive diffusion.

`O=C(C=Cc1ccc(O)cc1)Nc1ccc(O)cc1C(=O)O` [Avn A, N-(4′-hydroxycinnamoyl)-5-hydroxyanthranilic acid]: the “Penetration behaviour compared with DhAvn D” value was “weaker penetration behaviour than dehydroavenanthramide D (DhAvn D)”. Besides, for the setting “0 min”, the “Mean amount per ml acceptor liquid” value came out at 0 μg per ml. The “Mean amount per ml acceptor liquid” value (60 min) was determined as 0.069 μg per ml. Further, the “Mean amount per ml acceptor liquid” value (120 min) is recorded as 0.188 μg per ml. Besides, for the setting “240 min”, the “Mean amount per ml acceptor liquid” value is on record as 0.319 μg per ml and the “Modulation (%) of penetration / increase of permeation” value is given as 19%. This compound registered an Increase of permeation (2% Hydrolite-6 (1,2-hexanediol), 240 min) of 46%. For the same compound, where the note is “5% Hydrolite-5 (1,2-pentanediol), 240 min”, the Increase of permeation came out at 59%.
Turning to `COc1cc(C=CC(=O)Nc2ccc(O)cc2C(=O)O)ccc1O` [Avn B, N-(4′-hydroxy-3′-methoxycinnamoyl)-5-hydroxyanthranilic acid], the “Penetration behaviour compared with DhAvn D” value is given as “weaker penetration behaviour than dehydroavenanthramide D (DhAvn D)”. For the same compound, for the setting “0 min”, the “Mean amount per ml acceptor liquid” value is given as 0 μg per ml. The “Mean amount per ml acceptor liquid” value (60 min) is 0.038 μg per ml. For the same compound, the “Mean amount per ml acceptor liquid” value (120 min) came to 0.063 μg per ml. Moreover, the “Mean amount per ml acceptor liquid” value (240 min) is reported as 0.154 μg per ml. For the same compound, the Increase of permeation (1% Hydrolite-6 (1,2-hexanediol), Example 3, samples taken after 120 minutes) is on record as 62%. Besides, for the setting “1% SymDiol 68 (1:1 1,2-hexanediol and 1,2-octanediol), Example 3, samples taken after 120 minutes”, the Increase of permeation is on record as 87%. This compound registered an Increase of permeation (2% Hydrolite-6 (1,2-hexanediol), Example 3, samples taken after 120 minutes) of 76%.
Take `O=C(C=Cc1ccc(O)c(O)c1)Nc1ccc(O)cc1C(=O)O` [Avn C, N-(3′-4′-dihydroxycinnamoyl)-5-hydroxyanthranilic acid]: the “Penetration behaviour compared with DhAvn D” value is on record as “penetrates better than dehydroavenanthramide D (DhAvn D)”. Further, where the note is “0 min”, the “Mean amount per ml acceptor liquid” value is 0 μg per ml. Moreover, the “Mean amount per ml acceptor liquid” value (60 min) turned out to be 0.321 μg per ml. For the setting “120 min”, the “Mean amount per ml acceptor liquid” value came to 0.532 μg per ml. Besides, under “240 min”, the “Mean amount per ml acceptor liquid” value was 1.098 μg per ml.
With `O=C(/C=C/C=C/c1ccc(O)cc1)Nc1ccc(O)cc1C(=O)O` [Avn L], the “Penetration behaviour compared with DhAvn D” value was “weaker penetration behaviour than dehydroavenanthramide D (DhAvn D)”. The “Mean amount per ml acceptor liquid” value (0 min) is 0 μg per ml. Also, the “Mean amount per ml acceptor liquid” value (60 min) is listed as 0 μg per ml. Further, the “Mean amount per ml acceptor liquid” value (120 min) was 0.000 μg per ml. For the same compound, under “240 min”, the “Mean amount per ml acceptor liquid” value stood at 0.030 μg per ml and the “Modulation (%) of penetration / increase of permeation” value worked out at 125%. Moreover, under “1% Hydrolite-6 (1,2-hexanediol), 240 min”, the Increase of permeation came out at 160%.
For `O=C(CCc1ccc(O)cc1)Nc1ccccc1C(=O)O` [Dihydroavenanthramide D, 2-(3-(4-hydroxyphenyl-)propanoyl-)amidobenzoic acid, reference compound], the “Mean amount per ml acceptor liquid” value runs as follows: (0 min) 0.000 μg per ml; (60 min) 0.225 μg per ml; (120 min) 0.288 μg per ml; (240 min) 0.750 μg per ml. Also, the “Modulation (%) of penetration” value is given as −2% (60 min) and 58% (120 min). The “Modulation (%) of penetration / increase of permeation” value (240 min) worked out at 57%.
